Patent US6881751B2, “Medicament containing platinum complex compounds and the use thereof” (Ruprecht Karls Universitat, priority 1998, dated 2005)

Legend:
HeLa cells = assay: pH dependence of the effectiveness of cytostatic agents (live cell count, trypan blue); format: cell-based, Human; details: pH 7.4 vs pH 6.8, 24 hours, FIG. 3
Description: The number of live cells was determined after vital staining using trypan blue in Neubauer's counting chamber.

[1] = test system: Bronchial carcinoma cells (SCLC); assay: Anti-tumoral effect on a human parvocellular bronchial carcinoma in naked mice; format: in vivo, Nu/Nu mice, strain NMRI; details: 10 mg/kg intravenously, SCLC tumors about 8 mm, FIG. 1
Description: a) Anti-Tumoral Effect on a Human Parvocellular Bronchial Carcinoma in Naked Mice
Bronchial carcinoma cells (SCLC) were implanted under the skin of six-week-old Nu/Nu mice, strain NMRI (5×10^6 cells in 0.1 ml common salt solution). The tumors had reached a size of about 8 mm after two weeks. Then, five animals each were treated intravenously with either 0.2 ml common salt solution/[…]/1% acetone (control group) or with 10 mg/kg compound according to Example 1 in common salt solution/1% BSA/1% acetone (treated group). The tumor growth was controlled daily. The values are shown in enclosed FIG. 1.

[2] = test system: SW707 cells of a colorectal carcinoma; assay: Antitumoral effect on human xenotransplants, SW707; format: in vivo, Nu/Nu-Swiss mice; details: single i.p. injection 10 mg/kg, FIG. 4B
[3] = test system: Colon carcinoma cells (SW707); assay: Anti-tumoral effect on a human colon carcinoma in naked mice; format: in vivo, Nu/Nu mice, strain NMRI; details: SW707 tumors about 10 mm, FIG. 2
From the text: b) Anti-Tumoral Effect of a Compound According to Example 1 on a Human Colon Carcinoma in Naked Mice Colon carcinoma cells (SW707) were implanted under the skin of 6-week-old Nu/Nu mice, strain NMRI (5×10^6 cells in common salt solution).

[4] = Body weight of the xenotransplant group suffering from parvocellular pulmonary carcinoma; format: in vivo, Nu/Nu-Swiss mice
Description: The tumor sizes were determined in two directions and the relative tumor growth was calculated.
(C): Average body weights of the group suffering from parvocellular pulmonary carcinoma. The standard deviations were less than 3%.

[5] = test system: Human H10 cells of a parvocellular bronchial carcinoma; assay: Antitumoral effect on human xenotransplants, H10; format: in vivo, Nu/Nu-Swiss mice; details: single i.p. injection 10 mg/kg, FIG. 4A
cell lines = assay: Dependence of the cytotoxicity on the pH value, all cell lines of the table; format: cell-based; details: pH 6.8 vs pH 7.4, cell lines of the table
Description: Cells were plated in Linbro dishes or plates and, after 4 hours, the cells were fed with a medium which included either 2.2 g/l (pH 7.4) or 0.85 g/l (pH 6.8) NaHCO3.

SMILES	pH dependence of effectiveness (HeLa cells)	tumor size [1]	effect on tumor growth [2]	tumor growth ([3]; 7.5 mg/kg intravenously (treated group I))	weight loss ([4]; mouse, in vivo, ip, 10 mg/kg)	tumor size as compared to the control group [5] [%]	pH effect on IC50 (cell lines)	tumor growth ([3]; 10 mg/kg intravenously (treated group II))	weight loss ([4]; day 3 after the treatment, 10 mg/kg i.p., FIG. 4C) [%]	weight loss ([4]; day 6 after the treatment, 10 mg/kg i.p., FIG. 4C) [%]
CCOC1=[S+][Pt-2]2([S]1)[S]C(OCC)=[S+]2 [Example 1, bis-[O-ethyldithiocarbanato]Platinum (II)]	effective maximum in the slightly acidic range	decreased in size	tumor growth could be prevented	tumor growth was slowed down	no weight loss	–	–	–	–	–
N.N.[Cl][Pt][Cl] [cisplatin]	better effects in the alkaline range	–	no effect	–	–	50	poorer with pH 6.8 than with pH 7.4 or there was no detectable pH effect	constant tumor growth	12	13
